Reference: US4402942A, “Oxytocin derivatives” (Ferring AB, priority 1980, dated 1983)

Experiments:
[1] = tested on: isolated human myometrium (pregnant), oxytocin induced contractions; experiment: Inhibition of oxytocin induced contractions of isolated uterine tissue from pregnant women; assay type: cell-based; conditions: in vitro
Protocol: From 17 patients undergoing caesarean section (week 37-40) a transverse segment of uterine tissue was excised from the isthmic part of the uterus. Tissue pieces were also excised from the ventral side of the uterus of 21 non-pregnant women in fertile age undergoing hysterectomy. The tissue pieces were immediately placed in Krebs-Ringer solution (mM: NaCl 118, KCl 4.6, CaCl2 2.5, MgSO4 1.15, NaHCO3 24.9, KH2 PO4 1.15 and glucose 5.5) at 0° C. and used within two hours after the operation. Segments pieces 25×3×3 mm large were mounted in an organ bath containing 10 ml Krebs-Ringer solution at 37° C. and gassed with 5% CO2 in oxygen. After an adaptation period of 30 minutes contractions were isometrically recorded at a resting tension of 1.25 g. In experiments involving pregnant women use was made of oxytocin (0.013-1.3 μg/ml) as an agonist. Lysinevasopressin (0.07-1.3 μg/ml) was used as an agonist where non-pregnant tissue was tested. A suitable dose of agonist was selected, which gave an effect corresponding to approximately 40% of the maximum effect. The antagonist was used in a concentration of 0.33-1.32 μg/ml. […] The inhibitory effect of the antagonist was measured by planimetry, for 15 minutes after the addition of the peptide, of the total surface of the curve recorded. Inhibition was expressed as a percentage of the effect obtained with the agonist alone.

[2] = tested on: rat uterus preparations stimulated with oxytocin; experiment: Antagonistic activity (pA2) on rat uterus preparations in vitro stimulated with oxytocin; assay type: cell-based; conditions: oxytocin as agonist
Protocol: Sprague Dawley rats (body weight approximately 250 g) in natural estrous were selected by vaginal smears. An approximately 20 mm long segment was cut from the middle of a uterine horn and mounted in an organ bath containing 10 ml of a modified Locke's solution of the following composition (mM:NaCl 153, KCl 5.63, CaCl2 0.541, NaHCO3 5.95 and glucose 2.78). The solution was gassed with 5% CO2 in oxygen at 30° C. The uterine contractions were allowed to stabilize for 30 minutes. Contractions were recorded isometrically at a resting tension of 1.5 g using Grass force transducers (Ft. 03). Antagonistic potency of the analogues was calculated as pA2 values (Rudinger, J. & Krejci, I. Experientia 18, (1962), 585-588). pA2 is a measure of the inhibitory property of the peptide and was defined by Schild (Schild, H. O., British Journal of Pharmacology, 2, (1947), 189-206) as the negative logarithm of the molar concentration of an antagonist which reduces the effect of a dose of agonist to that of half the dose.

[3] = tested on: uterine contractions caused by infusion of oxytocin; experiment: Rat in vivo uterine contractions under oxytocin infusion; conditions: for complete block of the uterine contraction pattern (oxytocin initiated and spontaneous): dose of 2 μg; for inhibition of the increase of strength of uterine contractions caused by oxytocin infusion: oxytocin 0.05 μg/min/100 g body weight
Protocol: Sprague Dawley rats (250 g) in natural estrous were anaesthetized with Inactin (0.5 mg/100 g body weight i.p.). Myometrial activity was recorded by means of a catheter fixed in the uterine cavity and filled with modified Locke's solution. The catheter was connected to a Statham P23d transducer and contractions were recorded on a Grass polygraph (model 7D). Oxytocin was infused intravenously (0.05 μg/min/100 g body weight). When a regular contraction pattern had been obtained the antagonist (0.8-8.0 μg/100 g body weight) was administered intravenously in a volume of 0.2 ml. The recorded curve was integrated over 10 minute intervals immediately before and after injection of the antagonist.

isolated rat uterus = experiment: Uterotonic potency on isolated rat uterus with oxytocin as standard; assay type: cell-based; conditions: rat in vitro
Protocol: The known compounds 2-O-methyltyrosine-oxytocin and 2-O-ethyltyrosine-oxytocin and a representative compound according to the invention, viz. 1-deamino-(2-O-ethyltyrosine)-oxytocin, was examined with regard to uterotonic potency on isolated rat uterus with use of oxytocin as standard. The antagonistic properties of the compounds were also evaluated with the aid of said preparation, but also in vivo with use of oxytocin as agonist. Moreover, the inhibition of oxytocin effect on isolated human myometrium was examined.
Sprague Dawley rats (body weight approximately 250 g) in natural estrous were selected by vaginal smears. […] Contractions were recorded isometrically at a resting tension of 1.5 g using Grass force transducers (Ft. 03). Antagonistic potency of the analogues was calculated as pA2 values (Rudinger, J. & Krejci, I. Experientia 18, (1962), 585-588). pA2 is a measure of the inhibitory property of the peptide and was defined by Schild (Schild, H. O., British Journal of Pharmacology, 2, (1947), 189-206) as the negative logarithm of the molar concentration of an antagonist which reduces the effect of a dose of agonist to that of half the dose.

[4] = tested on: oxytocin induced uterine contractions; conditions: literature, studies on rats; cited from earlier work
[5] = Blood pressure after intravenous dose; assay type: in vivo; conditions: 30 μg intravenously
[6] = tested on: spontaneous uterine function; conditions: Swedish patent 7713/70; cited from earlier work

| Molecule | inhibition of oxytocin induced contractions [1] | pA2 (average ± average error) [2] | complete block of the uterine contraction pattern (oxytocin initiated and spontaneous) [3] | inhibition of the increase of strength of uterine contractions caused by oxytocin infusion [3] | uterotonic potency (isolated rat uterus) | effect on oxytocin induced uterine contractions [4] | effect on the blood pressure [5] | effect on the spontaneous uterine function [6] |
| --- | --- | --- | --- | --- | --- | --- | --- | --- |
| 2-O-ethyltyrosine-oxytocin | a significant inhibition was obtained, which was however considerably lower than with use of the compound according to the invention | 7.13 ± 0.09 | lack this ability | dose dependent reversible inhibition | 1-2 IU/mg | antagonistic effect |  |  |
| 2-O-methyltyrosine-oxytocin |  | 6.68 ± 0.12 | lack this ability | dose dependent reversible inhibition | 1-2 IU/mg | antagonistic effect |  |  |
| CCOc1ccc(C[C@@H]2NC(=O)CCSSC[C@@H](C(=O)N3CCC[C@H]3C(=O)N[C@@H](CC(C)C)C(=O)NCC(N)=O)NC(=O)[C@H](CC(N)=O)NC(=O)[C@H](CCC(N)=O)NC(=O)[C@H]([C@@H](C)CC)NC2=O)cc1 [1-deamino-2-O-ethyltyrosine-oxytocin] |  | 7.19 ± 0.10 |  |  |  |  | no effect at all on the blood pressure |  |
| N^α -acetyl-2-O-methyltyrosine-oxytocin |  |  |  |  |  | antagonistic effect |  | no effect on the spontaneous uterine function |
| [1-deaminopenicillamine,2-O-methyltyrosine]oxytocin |  |  |  |  |  | antagonistic effect |  |  |
